Experimental data published in the supplement of paper PMC10627819.

Experiments:
B. subtilis 168 [1] = assay: fitness (endpoint OD595 vs no drug) (fraction); higher = more growth
Outline: (§1)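 Bacterial growth was followed in 384-well plates seeded at OD595 0.01, with 30 µl per well, or 55 µl for S. pneumoniae, in TSB, LB Lennox or CY at 37 °C. OD595 was read every 30 min for 14 h, and each reading had the first reading subtracted as background. Fitness is the background-corrected optical density at entry into stationary phase divided by the robust mean of the no-drug control wells. This ratio is capped at 1.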

S. aureus DSM 20231 [2] = assay: as above
Outline: as §1

S. aureus Newman [3] = assay: as above
Outline: as §1

B. subtilis 168 [4] = assay: Bliss interaction score (quartile over a dose matrix) (fitness difference); higher = more antagonism (negative = synergy)
Outline: (§2)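 Combination data were used to infer fitness under each single drug. Fitness is the OD595 at entry into stationary phase divided by the robust mean of the plate's no-drug wells, with a cap of 1. The Bliss score is the observed minus the expected product fitness, summarised by quartiles over technical, biological and donor/recipient replicates.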

S. aureus DSM 20231 [5] = assay: as above
Outline: as §2

S. aureus Newman [6] = assay: as above
Outline: as §2

S. pneumoniae D39V = assay: as above
Outline: as §2
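For Bliss interaction score (quartile over a dose matrix) in this document: first quartile when negative (synergy) and third quartile when positive (antagonism).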

CC[C@H]1OC(=O)[C@H](C)[C@@H](O[C@H]2C[C@@](C)(OC)[C@@H](O)[C@H](C)O2)[C@H](C)[C@@H](O[C@@H]2O[C@H](C)C[C@H](N(C)C)[C@H]2O)[C@](C)(O)C[C@@H](C)CN(C)[C@H](C)[C@@H](O)[C@]1(C)O [Azithromycin] + C[n+]1ccc(-c2cc[n+](C)cc2)cc1 [Paraquat]
fitness
Settings | partner 1.25 µg/mL | partner 2.5 µg/mL | partner 5 µg/mL
B. subtilis 168 [1], first compound 0.25 µg/mL | 0.947 | 0.919 | 0.884
B. subtilis 168 [1], first compound 0.5 µg/mL | 0.906 | 0.866 | 0.759
S. aureus DSM 20231 [2], first compound 0.125 µg/mL | 0.827 | 0.846 | 0.794
S. aureus DSM 20231 [2], first compound 0.25 µg/mL | 0.814 | 0.75 | 0.823
S. aureus DSM 20231 [2], first compound 0.5 µg/mL | 0.473 | 0.51 | 0.514
S. aureus Newman [3], first compound 0.125 µg/mL | 0.924 | 0.904 | 0.853
S. aureus Newman [3], first compound 0.25 µg/mL | 0.882 | 0.845 | 0.789
S. aureus Newman [3], first compound 0.5 µg/mL | 0.55 | 0.575 | 0.496

Settings | Bliss interaction score
B. subtilis 168 [4] | 0.0865
S. aureus DSM 20231 [5] | -0.095
S. aureus Newman [6] | -0.0372
S. pneumoniae D39V | 0.0486

CC[C@H]1OC(=O)[C@H](C)[C@@H](O[C@H]2C[C@@](C)(OC)[C@@H](O)[C@H](C)O2)[C@H](C)[C@@H](O[C@@H]2O[C@H](C)C[C@H](N(C)C)[C@H]2O)[C@](C)(O)C[C@@H](C)CN(C)[C@H](C)[C@@H](O)[C@]1(C)O [Azithromycin] + Cc1cc(NS(=O)(=O)c2ccc(N)cc2)no1 [Sulfamethoxazol]
fitness
Settings | partner 1 µg/mL | partner 2 µg/mL | partner 4 µg/mL
B. subtilis 168 [1], first compound 0.25 µg/mL | 0.901 | 0.89 | 0.895
B. subtilis 168 [1], first compound 0.5 µg/mL | 0.871 | 0.834 | 0.849
S. aureus DSM 20231 [2], first compound 0.125 µg/mL | 0.911 | 0.85 | 0.913
S. aureus DSM 20231 [2], first compound 0.25 µg/mL | 0.85 | 0.839 | 0.869
S. aureus DSM 20231 [2], first compound 0.5 µg/mL | – | 0.545 | 0.516
S. aureus Newman [3], first compound 0.125 µg/mL | 0.849 | 0.88 | 0.86
S. aureus Newman [3], first compound 0.25 µg/mL | 0.85 | 0.869 | 0.837

one replicate
Settings | fitness
B. subtilis 168 [1], first compound 0.5 µg/mL, partner 0.5 µg/mL | 0.899
B. subtilis 168 [1], first compound 1 µg/mL, partner 0.5 µg/mL | 0.788
B. subtilis 168 [1], first compound 2 µg/mL, partner 0.5 µg/mL | 0.029
B. subtilis 168 [1], first compound 2 µg/mL, partner 1 µg/mL | 0.105
B. subtilis 168 [1], first compound 2 µg/mL, partner 2 µg/mL | 0.126
S. aureus Newman [3], first compound 0.125 µg/mL, partner 8 µg/mL | 0.895
S. aureus Newman [3], first compound 0.25 µg/mL, partner 8 µg/mL | 0.873
S. aureus Newman [3], first compound 0.5 µg/mL, partner 8 µg/mL | 0.893

Settings | Bliss interaction score
B. subtilis 168 [4] | 0.0534
S. aureus DSM 20231 [5] | -0.0683
S. aureus Newman [6] | -0.0991
S. pneumoniae D39V | 0.071

CC[C@H]1OC(=O)[C@H](C)[C@@H](O[C@H]2C[C@@](C)(OC)[C@@H](O)[C@H](C)O2)[C@H](C)[C@@H](O[C@@H]2O[C@H](C)C[C@H](N(C)C)[C@H]2O)[C@](C)(O)C[C@@H](C)CN(C)[C@H](C)[C@@H](O)[C@]1(C)O [Azithromycin] + Cc1ncc([N+](=O)[O-])n1CCO [Metronidazole]
fitness
Settings | partner 0.625 µg/mL | partner 1.25 µg/mL | partner 2.5 µg/mL
B. subtilis 168 [1], first compound 0.25 µg/mL | 0.917 | 0.916 | 0.897
B. subtilis 168 [1], first compound 0.5 µg/mL | – | – | 0.878
S. aureus DSM 20231 [2], first compound 0.125 µg/mL | 0.932 | 0.993 | ≥ 1
S. aureus DSM 20231 [2], first compound 0.25 µg/mL | 0.928 | 0.982 | 0.949
S. aureus Newman [3], first compound 0.125 µg/mL | 0.896 | 0.915 | 0.947
S. aureus Newman [3], first compound 0.25 µg/mL | 0.831 | 0.906 | 0.823
S. aureus Newman [3], first compound 0.5 µg/mL | 0.73 | – | 0.67

fitness, S. aureus Newman [3], one replicate
Settings | first compound 0.125 µg/mL | first compound 0.25 µg/mL | first compound 0.5 µg/mL
partner 0.781 µg/mL | 0.882 | 0.942 | 0.659
partner 1.562 µg/mL | 0.875 | 0.924 | 0.642
partner 3.124 µg/mL | 0.859 | 0.928 | 0.635

Settings | Bliss interaction score
B. subtilis 168 [4] | 0.0931
S. aureus DSM 20231 [5] | 0.0787
S. aureus Newman [6] | -0.0641
S. pneumoniae D39V | 0.102

CC[C@H]1OC(=O)[C@H](C)[C@@H](O[C@H]2C[C@@](C)(OC)[C@@H](O)[C@H](C)O2)[C@H](C)[C@@H](O[C@@H]2O[C@H](C)C[C@H](N(C)C)[C@H]2O)[C@](C)(O)C[C@@H](C)CN(C)[C@H](C)[C@@H](O)[C@]1(C)O [Azithromycin] + Cc1onc(-c2ccccc2)c1C(=O)N[C@@H]1C(=O)N2[C@@H]1SC(C)(C)[C@@H]2C(=O)O [Oxacillin]
fitness
Settings | first compound 0.125 µg/mL | first compound 0.25 µg/mL | first compound 0.5 µg/mL | first compound 1 µg/mL
B. subtilis 168 [1], partner 0.002 µg/mL | – | 0.881 | 0.87 | 0.535
B. subtilis 168 [1], partner 0.004 µg/mL | – | 0.851 | 0.818 | 0.503
B. subtilis 168 [1], partner 0.0078 µg/mL | – | ≥ 1 | 0.888 | –
B. subtilis 168 [1], partner 0.008 µg/mL | – | 0.824 | 0.842 | 0.453
B. subtilis 168 [1], partner 0.0155 µg/mL | – | 0.964 | 0.887 | –
B. subtilis 168 [1], partner 0.031 µg/mL | – | 0.983 | 0.908 | –
S. aureus DSM 20231 [2], partner 0.0156 µg/mL | 0.722 | 0.786 | – | –
S. aureus DSM 20231 [2], partner 0.0312 µg/mL | 0.617 | 0.62 | 0.183 | –
S. aureus DSM 20231 [2], partner 0.0625 µg/mL | 0.482 | 0.54 | 0.379 | –
S. aureus Newman [3], partner 0.0156 µg/mL | 0.723 | 0.726 | – | –
S. aureus Newman [3], partner 0.0312 µg/mL | 0.715 | 0.725 | 0.365 | –
S. aureus Newman [3], partner 0.0625 µg/mL | 0.624 | 0.622 | 0.31 | –

fitness, B. subtilis 168 [1], one replicate
Settings | first compound 0.5 µg/mL | first compound 1 µg/mL | first compound 2 µg/mL
partner 0.075 µg/mL | 0.582 | 0.318 | 0.0267
partner 0.15 µg/mL | 0.037 | 0.0238 | 0.016
partner 0.3 µg/mL | 0.0266 | 0.0264 | 0.0201

Settings | Bliss interaction score
B. subtilis 168 [4] | 0.0492
S. aureus DSM 20231 [5] | -0.0461
S. aureus Newman [6] | 0.0591
S. pneumoniae D39V | 0.0949

CC[C@H]1OC(=O)[C@H](C)[C@@H](O[C@H]2C[C@@](C)(OC)[C@@H](O)[C@H](C)O2)[C@H](C)[C@@H](O[C@@H]2O[C@H](C)C[C@H](N(C)C)[C@H]2O)[C@](C)(O)C[C@@H](C)CN(C)[C@H](C)[C@@H](O)[C@]1(C)O [Azithromycin] + O=C(O[C@@H]1Cc2c(O)cc(O)cc2O[C@@H]1c1cc(O)c(O)c(O)c1)c1cc(O)c(O)c(O)c1 [EGCG]
fitness
Settings | partner 6.25 µg/mL | partner 12.5 µg/mL | partner 25 µg/mL | partner 50 µg/mL
B. subtilis 168 [1], first compound 0.25 µg/mL | 0.859 | 0.508 | 0.246 | –
B. subtilis 168 [1], first compound 0.5 µg/mL | 0.912 | 0.461 | – | –
B. subtilis 168 [1], first compound 1 µg/mL | – | – | 0.0462 | –
S. aureus DSM 20231 [2], first compound 0.125 µg/mL | – | 0.703 | 0.693 | 0.614
S. aureus DSM 20231 [2], first compound 0.25 µg/mL | – | 0.761 | 0.695 | –
S. aureus Newman [3], first compound 0.125 µg/mL | – | 0.759 | 0.706 | 0.696
S. aureus Newman [3], first compound 0.25 µg/mL | – | 0.726 | 0.715 | 0.658
S. aureus Newman [3], first compound 0.5 µg/mL | – | 0.545 | 0.522 | 0.484

B. subtilis 168 [1], first compound 2 µg/mL, one replicate
Settings | fitness
partner 6.25 µg/mL | 0.387
partner 12.5 µg/mL | 0.229
partner 25 µg/mL | 0.201

Settings | Bliss interaction score
B. subtilis 168 [4] | -0.0827
S. aureus DSM 20231 [5] | -0.13
S. aureus Newman [6] | -0.0553
S. pneumoniae D39V | 0.043
